The values that follow are results of earlier work, collected in publication PMC8778187, “A New Oxygen Containing Pyclen-Type Ligand as a Manganese(II) Binder for MRI and ^52Mn PET Applications: Equilibrium, Kinetic, Relaxometric, Structural and Radiochemical Studies” (Molecules, 2022).

Read-outs that look alike come from different tables or passages of the source. Marks after values point to notes of the source that are not given here.

The conditions of data set [1]: T = 25 °C, cited from earlier work; for log KMnL / log KMnHL / pMn: ref 16 (PC2A ligands), 12 (DO2A ligands); for log KMnL / pMn: 20 (H21,7-O2DO2A); for pMn: pMn = −log(Mn(II)free), cMn^2+ = cligand = 1 × 10^−5 M, pH = 7.4.
The conditions of data set [2]: Cu^2+ complex, T = 25 °C, I = 0.15 M NaCl, cited from earlier work; for log KMnHL / log KMnL: ref 16 (PC2A ligands), 12 (DO2A ligands), 20 (H21,7-O2DO2A).
For data set [3] the following is noted: Zn^2+ complex, T = 25 °C, I = 0.15 M NaCl, cited from earlier work; for log KMnLOH: DO2A values carry footnote f, ref 12 (DO2A ligands); for log KMnLOH / log KMnL: 20 (H21,7-O2DO2A); for log KMnL / log KMnHL: ref 16 (PC2A ligands), 12 (DO2A ligands).
The conditions of data set [4]: Mn(II) complex, 25 °C, pH = 7.4, cited from earlier work.
The conditions of data set [5]: T = 25 °C, I = 0.15 M NaCl, ref 16 (PC2A ligands), 12 (DO2A ligands), cited from earlier work; for log K1^H / log K2^H / log K3^H / Σlog Κ2^H: 20 (H21,7-O2DO2A); for Σlog Κ2^H: log K1^H + log K2^H.
The conditions of data set [6]: Ca^2+ complex, T = 25 °C, I = 0.15 M NaCl, cited from earlier work; for log KMnL: ref 16 (PC2A ligands), 12 (DO2A ligands), 20 (H21,7-O2DO2A).
For data set [7] the following is noted: Mg^2+ complex, T = 25 °C, I = 0.15 M NaCl, cited from earlier work; for log KMnL: ref 16 (PC2A ligands), 20 (H21,7-O2DO2A).
Setting [8] is: 0.49 T, ref 16 (PC2A ligands), 12 (DO2A ligands), 20 (H21,7-O2DO2A).

Consider `O=C(O)CN1CCNCCNCCN(CC(=O)O)CC1` [H21,4-DO2A], for which, in data set [1] (Mn^2+ complex, I = 0.15 M NaCl), the “log KMnL” value is reported as 15.68 and the “log KMnHL” value is reported as 4.15. The pMn in data set [1] was 7.27. For the same compound, in data set [2], the “log KMnHL” value was 2.95 and the “log KMnL” value is reported as 24.43 ^g. In data set [3], the “log KMnLOH” value is listed as 1.65 ^f, the “log KMnL” value was 18.03 and the “log KMnHL” value is given as 3.58. Besides, the r1p in data set [4] (setting [8]) was 2.10 mM⁻¹ s⁻¹. In data set [5], the “log K1^H” value is recorded as 11.44, the “log K2^H” value was 9.51, the “log K3^H” value is 4.14 and the “log K4^H” value was 1.55. Besides, the “Σlog Κ2^H” value in data set [5] was 20.95. Further, in data set [6], the “log KMnL” value is 8.62.

With `O=C(O)CN1CCNCCN(CC(=O)O)CCNCC1` [H21,7-DO2A], in data set [1] (Mn^2+ complex, I = 0.15 M NaCl), the “log KMnL” value was 14.64 and the “log KMnHL” value is 4.40. For the same compound, the pMn in data set [1] was 6.52. For the same compound, in data set [2], the “log KMnHL” value is recorded as 3.06 and the “log KMnL” value is reported as 24.24. Further, in data set [3], the “log KMnLOH” value is 1.78 ^f, the “log KMnL” value is given as 18.86 and the “log KMnHL” value is given as 4.23. In addition, in data set [4] (setting [8]), the r1p was 1.50 mM⁻¹ s⁻¹. In data set [5], the “log K1^H” value is recorded as 11.69, the “log K2^H” value is 9.75, the “log K3^H” value is reported as 3.97 and the “log K4^H” value is on record as 2.68. Further, the “Σlog Κ2^H” value in data set [5] is listed as 21.44. Further, the “log KMnL” value in data set [6] is reported as 8.86.

For `O=C(O)CN1CCOCCN(CC(=O)O)CCOCC1` [H21,7-O2DO2A], in data set [1] (Mn^2+ complex, I = 0.15 M NaCl), the “log KMnLOH” value is 12.38 and the “log KMnL” value was 9.38. Moreover, the pMn in data set [1] was 6.67. In data set [2], the “log KMnLOH” value was 11.95, the “log KMnHL” value is listed as 2.46 and the “log KMnL” value is 14.56. For the same compound, in data set [3], the “log KMnLOH” value is listed as 11.40 and the “log KMnL” value was 10.55. In data set [4] (setting [8]), the r1p is 2.86 mM⁻¹ s⁻¹. For the same compound, the “log KMnL” value in data set [7] is recorded as 3.91. In data set [5], the “log K1^H” value is given as 8.05, the “log K2^H” value is 7.43, the “log K3^H” value is recorded as 2.06 and the “Σlog Κ2^H” value is on record as 15.48. The “log KMnL” value in data set [6] is on record as 6.96.

`O=C(O)CN1CCNCc2cccc(n2)CN(CC(=O)O)CC1` [H23,6-PC2A]: in data set [1] (Mn^2+ complex, I = 0.15 M NaCl), the “log KMnL” value is on record as 15.53 and the “log KMnHL” value was 3.06. Further, the pMn in data set [1] is on record as 8.09. Also, in data set [2], the “log KMnHL” value was 2.37 ^g and the “log KMnL” value is listed as 24.09 ^g. Besides, in data set [3], the “log KMnL” value was 20.37 and the “log KMnHL” value is recorded as 2.36. For the same compound, the r2p in data set [4] (0.49 T) is 3.49 mM⁻¹ s⁻¹. Besides, the r1p in data set [4] (setting [8]) is 2.72 mM⁻¹ s⁻¹. In data set [4] (1.41 T), the r1p was 2.40 mM⁻¹ s⁻¹ and the r2p was 4.20 mM⁻¹ s⁻¹. In addition, in data set [7], the “log KMnHL” value is on record as 5.87 and the “log KMnL” value was 8.11. Also, in data set [5], the “log K1^H” value is 10.72, the “log K2^H” value is recorded as 8.37, the “log K3^H” value was 3.81 and the “log K4^H” value is recorded as 1.26. Also, in data set [5], the “Σlog Κ2^H” value was 19.09. Moreover, in data set [6], the “log KMnHL” value is recorded as 5.27 and the “log KMnL” value is given as 9.57.
